Measured values reported in patent US6340705B1, “Use of α-linolenic acid metabolites for treatment or prevention of cancer” (Monsanto Technology, LLC, priority 1999, dated 2002).
Marks after values point to notes of the source that are not given here.

Assays:
HepG2 cells [1] = test: Uptake of 14C-ALA, 14C-SDA and 14C-EPA by HepG2 cells; format: in vitro ADME; details: for radiolabeled fatty acid taken up by the cells: 20 μM complexed to fatty acid free BSA, within the first six hours of incubation; for uptake by HepG2 cells, comparison (FIG. 1): 20 μM, 6, 24 and 48 hours
Protocol: To a culture medium containing HepG2 cells was added 20 μM ^14C-ALA, ^14C-SDA or ^14C-EPA complexed to fatty acid free BSA. The amount of ^14C-ALA, ^14C-SDA or ^14-EPA EPA Taken up by the HepG2 cells was measured 6 hours, 24 hours and 48 hours after addition of the fatty acid. A scintillation counter was used to measure the total amount of radioactivity in the HepG2 cells and the amount remaining in the medium.

[2] = parameters: species or system Mice; details: mouse, in vivo
Source text: The method used was a non-radioactive, dose response, metabolic end-point study.
(§1) Mice were fed a US17 diet containing α-linolenic acid ethyl ester (ALA-EE), stearidonic acid ethyl ester (SDA-EE), eicosapentaenoic acid ethyl ester (EPA-EE), or docosahexaenoic acid ethyl ester (DHA-EE) in an amount equivalent to a human western diet containing 1, 3 or 10 g/day of the fatty acid (g/day human equivalent dose). In order to maintain a 17% fat (37 en %) content in the US17 diet, oleic acid (18:1 n-9), as an oleic acid cassette, was removed from the US17 diet in an amount equal to the amount of fatty acid ester that was added. Oleic acid was selected as the replacement fatty acid because literature reports indicate that oleic acid is neutral with respect to inflammation and cancer.
(§2) After one month on the respective US17-based diets, the mice were sacrificed and the fatty acid composition of each of their livers was analyzed by gas chromatography. The results of these analyses are pressured in FIG. 8.

[3] = format: in vivo, rats; details: rat, in vivo
Source text: as §1, §2
The method used was as described in Example 6 except that rats were used in place of mice.

[4] = test system: Min/+ mouse model of intestinal cancer; test: Intestinal polyp formation in the Min/+ mouse model of intestinal cancer; format: in vivo; parameters: Avg. large intestine tumor size: unit not given here; details: Min/+ mice; for effectiveness in inhibiting polyp formation and development in the large intestine / effect on polyp number relative to the US17 control: 10 g/day human equivalent dose; for Total small intestine tumors/group / Avg. large intestine tumors/mouse / Avg. small intestine tumor size / Avg. small intestine tumors/mouse / Avg. large intestine tumor size / Avg. large intestine tumor load / Avg. small intestine tumor load / Total Avg. overall tumor load / Total Avg. overall tumor size / Total Avg. tumors/mouse: 10 g/day human equivalent dose (3% wt.) or sulindac 320 ppm; for Total small intestine tumors/group / Avg. large intestine tumors/mouse / Avg. small intestine tumor size / Avg. small intestine tumors/mouse / Avg. large intestine tumor size / Avg. large intestine tumor load / Avg. small intestine tumor load / Total large intestine tumors/group / Total Avg. overall tumor load / Total Avg. overall tumor size / Total Avg. tumors/mouse / Total large intestine tumors/group, figure in brackets (animals bearing tumors/animals in group): seven weeks; for Avg. large intestine tumors/mouse / Avg. small intestine tumor size / Avg. small intestine tumors/mouse / Avg. large intestine tumor size / Avg. large intestine tumor load / Avg. small intestine tumor load / Total Avg. overall tumor load / Total Avg. overall tumor size / Total Avg. tumors/mouse: mean ± SEM; for Avg. large intestine tumor size: only animals bearing colonic tumors; for Avg. large intestine tumor load / Avg. small intestine tumor load: tumor number × tumor size; for Total large intestine tumors/group / Total large intestine tumors/group, figure in brackets (animals bearing tumors/animals in group): fatty acid ethyl ester 10 g/day human equivalent dose (3% wt.) in US17 diet or sulindac 320 ppm; for Total Avg. overall tumor load / Total Avg. overall tumor size / Total Avg. tumors/mouse: large and small intestine; for effect on polyp number relative to the US17 control: differences not significant
Protocol: The efficacy of select n-3 and n-6 polyunsaturated fatty acids was evaluated in the Min/+ mouse model of intestinal cancer. The following fatty acid ethyl esters were tested for their effect on intestinal polyp formation: 1) ALA-EE; 2) SDA-EE; 2) EPA-EE; 4) DHA-EE; 5) GLA-EE ([…], 18:3 n-6); and 6) CLA-EE (conjugated linoleic acid; c9t11-18:2 (77%)+c9c11-18:2 (18%)+other isomers (5%)).
These fatty acid ethyl esters were added to the US17 diet to provide 10 g/day human equivalent dose (3% wt.). The NSAID, sulindac (320 ppm), served as the positive control. In order to maintain a 17% fat (37 en%) content in the US17 diet, oleic acid (18:1 n-9) was removed from the US17 diet in an amount equal to the amount of the fatty acid ethyl ester that was added. Mice were received at approximately five weeks of age and were fed the test diets upon receipt. After seven weeks on the respective test diet, the mice were sacrificed and the intestinal polyps were counted and measured.

[5] = Metabolism in mice, time course analysis using radiolabeled fatty acids (mouse liver); details: mice on US17 diet, intraperitoneal 10 μCi, at 24 hours
Protocol: The method used was a time course study using ^14C-labeled fatty acids.
Mice were fed the US17 diet for a period of one month in order to achieve steady-state fatty acid metabolism. After achieving steady-state fatty acid metabolism, the mice were administered an intraperitoneal injection containing 10 μCi of ^14C-ALA, ^14C-SDA, ^14C-EPA OR ^14C-DHA. Mice were sacrificed 3 hours, 8 hours or 24 hours post-injection, and the total amount of ^14C-EPA, ^14C-DPA n-3 and ^14C-DHA was measured by argentation thin layer chromatography followed by direct electronic autoradiography, as described in Example 3.

HepG2 cells [6] = test: Metabolism of radiolabeled fatty acids to long chain n-3 PUFAs (EPA, DHA) in HepG2 cells; format: in vitro ADME; details: 20 μM
Protocol: HepG2 cells were allowed to take up ^14C-ALA or ^14C-SDA as described in Example 2. The total amount of ^14C-EPA, ^14C-DPA and ^14C-DHA present in the HepG2 cells was measured 6 hours, 24 hours and 48 hours after addition of the fatty acid by argentation thin layer chromatography (TLC). The amount of each fatty acid present as a band on the TLC plate was quantified by electronic autoradiography using an Instant Imager supplied by Packard (Meriden, Conn.).
HepG2 cells were allowed to take up ^14C-ALA, ^14C-SDA or ^14C-EPA as described in Example 2. The amount of ^14C-EPA and ^14C-DHA present in the HepG2 cells was measured 6 hours, 24 hours and 48 hours after addition of the fatty acids by argentation thin layer chromatography (TLC) as described in Example 3. The amount of ^14C-EPA and ^14C-DHA present as bands on the TLC plate were quantified by electronic autoradiography using an Instant Imager as described in Example 3.

Row | Compound | radiolabeled fatty acid taken up by the cells (HepG2 cells [1]) | uptake by HepG2 cells, comparison (FIG. 1) (HepG2 cells [1]) | sum of long chain n-3 PUFAs (EPA+DPA n-3+DHA) in liver tissue, rank order of dose dependent increase (FIG. 8) [2] | sum of long chain n-3 PUFAs (EPA+DPA n-3, and DHA) in liver tissue, rank order of dose dependent accumulation (FIG. 9) [3] | order of metabolism to 14C-EPA + 14C-DPA n-3 + 14C-DHA in mouse liver (FIG. 6) [5] | amount of EPA that remained after incubation with EPA itself (HepG2 cells [6]) | effectiveness in inhibiting polyp formation and development in the large intestine [4] | Total small intestine tumors/group [4] | Avg. large intestine tumors/mouse [4] | Avg. small intestine tumor size [4] | Avg. small intestine tumors/mouse [4] | Avg. large intestine tumor size [4] | Avg. large intestine tumor load [4] | Avg. small intestine tumor load [4] | Total large intestine tumors/group [4] | Total Avg. overall tumor load [4] | Total Avg. overall tumor size [4] | Total Avg. tumors/mouse [4] | effect on polyp number relative to the US17 control [4] | Total large intestine tumors/group, figure in brackets (animals bearing tumors/animals in group) [4]
1 | CC/C=C\C/C=C\C/C=C\CCCCCCCC(=O)OCC [ALA-EE, α-linolenic acid ethyl ester] |  |  | DHA-EE>EPA-EE>SDA-EE>ALA-EE | DHA-EE>EPA-EE>SDA-EE>ALA-EE |  |  |  |  |  |  |  |  |  |  |  |  |  |  |  | 
2 | CCCCC/C=C\C/C=C\C/C=C\CCCCC(=O)O [GLA, γ-linolenic acid] |  |  |  |  |  |  |  | 421 | 1.2 ± 0.4^abc | 1.30 ± 0.04^ab mm | 46.8 ± 7.1^a | 2.57 ± 0.30^ab | 3.25 ± 1.34^abc mm | 61.62 ± 10.36^a mm | 11 | 64.84 ± 11.05^a mm | 1.33 ± 0.04^a mm | 48.0 ± 7.4^a | appeared to increase polyp number | 6/9
3 | CC1=C(CC(=O)O)c2cc(F)ccc2/C1=C\c1ccc([S+](C)[O-])cc1 (stereo not drawn) [Sulindac, sulindac] |  |  |  |  |  |  |  | 29 | 0.2 ± 0.2^cd | 1.25 ± 0.29^ab mm | 3.2 ± 1.1^d | 2.00 ± 0.00^ab | 0.44 ± 0.29^cd mm | 3.64 ± 1.12^d mm | 2 | 3.64 ± 1.27^d mm | 1.04 ± 0.08^d mm | 3.4 ± 1.2^d |  | 2/9
4 | conjugated linoleic acid [CLA] |  |  |  |  |  |  |  | 409 | 1.1 ± 0.4^abcd | 1.24 ± 0.03^ab mm | 45.4 ± 8.2^a | 3.03 ± 0.52^a | 3.47 ± 1.29^ab mm | 57.84 ± 11.70^a mm | 10 | 61.30 ± 12.41^a mm | 1.28 ± 0.04^ab mm | 46.6 ± 8.3^a | appeared to increase polyp number | 5/9
5 | α-linolenic acid [ALA] |  |  |  |  |  |  | marginally efficacious | 364 | 0.8 ± 0.3^bcd | 1.23 ± 0.04^ab mm | 36.4 ± 6.3^ab | 2.75 ± 0.46^ab | 2.15 ± 0.83^bcd mm | 45.67 ± 8.66^ab mm | 8 | 45.97 ± 8.88^ab mm | 1.21 ± 0.03^bc mm | 37.2 ± 6.6^ab |  | 5/10

Further lines, with some results ahead:

Row | radiolabeled fatty acid taken up by the cells (HepG2 cells [1]) | uptake by HepG2 cells, comparison (FIG. 1) (HepG2 cells [1]) | sum of long chain n-3 PUFAs (EPA+DPA n-3+DHA) in liver tissue, rank order of dose dependent increase (FIG. 8) [2] | sum of long chain n-3 PUFAs (EPA+DPA n-3, and DHA) in liver tissue, rank order of dose dependent accumulation (FIG. 9) [3] | order of metabolism to 14C-EPA + 14C-DPA n-3 + 14C-DHA in mouse liver (FIG. 6) [5] | amount of EPA that remained after incubation with EPA itself (HepG2 cells [6]) | Compound | effectiveness in inhibiting polyp formation and development in the large intestine [4] | Total small intestine tumors/group [4] | Avg. large intestine tumors/mouse [4] | Avg. small intestine tumor size [4] | Avg. small intestine tumors/mouse [4] | Avg. large intestine tumor size [4] | Avg. large intestine tumor load [4] | Avg. small intestine tumor load [4] | Total large intestine tumors/group [4] | Total Avg. overall tumor load [4] | Total Avg. overall tumor size [4] | Total Avg. tumors/mouse [4] | effect on polyp number relative to the US17 control [4] | Total large intestine tumors/group, figure in brackets (animals bearing tumors/animals in group) [4]
6 | Approximately 95% | taken up equally |  |  |  |  | CC/C=C\C/C=C\C/C=C\CCCCCCCC(=O)O [ALA, α-linolenic acid] |  |  |  |  |  |  |  |  |  |  |  |  |  | 
7 |  |  |  |  | DHA=EPA>SDA>ALA |  | CC/C=C\C/C=C\C/C=C\C/C=C\C/C=C\C/C=C\CCC(=O)O [DHA, docosahexaenoic acid] | no efficacy | 280 | 1.8 ± 0.4^a | 1.16 ± 0.04^ab mm | 28.0 ± 5.6^bc | 3.01 ± 0.20^a | 5.06 ± 0.85^a mm | 33.15 ± 8.09^bc mm | 18 | 35.60 ± 7.10^bc mm | 1.20 ± 0.04^bc mm | 29.8 ± 5.9^bc |  | 
8 |  |  | DHA-EE>EPA-EE>SDA-EE>ALA-EE | DHA-EE>EPA-EE>SDA-EE>ALA-EE |  |  | CC/C=C\C/C=C\C/C=C\C/C=C\C/C=C\C/C=C\CCC(=O)OCC [DHA-EE, docosahexaenoic acid ethyl ester] |  |  |  |  |  |  |  |  |  |  |  |  |  | 
9 | Approximately 95% | taken up equally |  |  |  | 63% | CC/C=C\C/C=C\C/C=C\C/C=C\C/C=C\CCCC(=O)O [EPA, eicosapentaenoic acid] |  | 176 | 0.9 ± 0.3^abcd | 1.05 ± 0.03^b mm | 17.6 ± 2.2^cd | 2.48 ± 0.39^ab | 2.25 ± 0.75^bcd mm |  | 9 | 20.28 ± 2.23^cd mm | 1.11 ± 0.04^cd mm | 18.5 ± 2.2^a |  | 
10 |  |  | DHA-EE>EPA-EE>SDA-EE>ALA-EE | DHA-EE>EPA-EE>SDA-EE>ALA-EE |  |  | CC/C=C\C/C=C\C/C=C\C/C=C\C/C=C\CCCC(=O)OCC [EPA-EE, eicosapentaenoic acid ethyl ester] |  |  |  |  |  |  |  |  |  |  |  |  |  | 
11 |  |  | DHA-EE>EPA-EE>SDA-EE>ALA-EE | DHA-EE>EPA-EE>SDA-EE>ALA-EE |  |  | CC/C=C\C/C=C\C/C=C\C/C=C\CCCCC(=O)OCC [SDA-EE, stearidonic acid ethyl ester] |  |  |  |  |  |  |  |  |  |  |  |  |  | 
